In paper PMC6429507, “Triterpene-Based Carboxamides Act as Good Inhibitors of Butyrylcholinesterase” (Molecules, 2019):
Counter-ions that a name gives are not always drawn. Like-named read-outs stand apart in the source and are kept apart here.

Key:
[1] = biological target: acetylcholinesterase (AChE, electric eel) (Electrophorus electricus, UniProt O42275); conditions: for Grade of inhibition in% AChE / Ki' (uncompetitive inhibition) / Ki: mean ± SE; for Type of Inhibition / Ki' (uncompetitive inhibition) / Ki: AChE, electric eel; for Ki: read-out: Ki (competitive inhibition)
acetylcholinesterase (AChE, electric eel), sequence (O42275 24-633): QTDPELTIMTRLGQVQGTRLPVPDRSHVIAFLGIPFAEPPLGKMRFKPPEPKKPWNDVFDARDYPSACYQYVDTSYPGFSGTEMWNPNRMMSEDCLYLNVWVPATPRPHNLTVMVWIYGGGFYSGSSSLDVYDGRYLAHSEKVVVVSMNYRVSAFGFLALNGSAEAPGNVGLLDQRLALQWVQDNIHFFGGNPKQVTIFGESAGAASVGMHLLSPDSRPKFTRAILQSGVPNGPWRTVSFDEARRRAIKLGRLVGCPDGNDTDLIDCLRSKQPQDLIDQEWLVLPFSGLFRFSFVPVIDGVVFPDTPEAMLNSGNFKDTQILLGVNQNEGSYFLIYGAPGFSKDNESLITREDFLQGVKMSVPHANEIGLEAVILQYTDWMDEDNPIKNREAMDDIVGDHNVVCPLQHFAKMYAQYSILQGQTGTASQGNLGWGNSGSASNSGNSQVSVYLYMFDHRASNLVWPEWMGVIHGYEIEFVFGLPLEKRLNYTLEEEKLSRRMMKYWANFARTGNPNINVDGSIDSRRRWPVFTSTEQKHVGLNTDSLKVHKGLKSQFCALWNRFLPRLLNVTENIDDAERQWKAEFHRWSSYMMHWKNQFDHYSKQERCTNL
Excerpt: (§1) In this study, carboxamides with different triterpenoic backbones (ursolic, oleanolic, maslinic, betulinic, and platanic acids), and various amine residues (Scheme 1), were investigated.
(§2) A TECAN SpectraFluorPlus working in the kinetic mode and measuring the absorbance at λ = 415 nm was used for the enzymatic studies. Acetylcholinesterase (from Electrophorus electricus), 5,5′-dithiobis-(2-nitrobenzoic acid) (DTNB) and acetylthiocholine iodide were purchased from Sigma. Butyrylcholinesterase (from equine serum) was purchased from Fluka. Preparation of the solutions, assay procedure, as well as molecular modeling conditions can be found in the Supplementary Materials.
(§3) 3.1 Preparation of the solutions
(§4) Preparation of 50 mM Tris-HCl buffer solutions: Tris(hydroxymethyl)-aminomethane (606 mg) was dissolved in bidestilled water (100 mL) and adjusted with HCl to a pH of 8.0 ± 0.1. Buffers were freshly prepared and stored in the refrigerator. AChE solution 2.005 U/mL: the enzyme (271 U/mg, 0.037 mg) was dissolved in freshly prepared buffer pH 8.0 (5 mL) containing NaN3 (0.98 mg). BChE solution 2.040 U/mL: the enzyme (7.54 U/mg, 1.353 mg) was dissolved in freshly prepared buffer pH 8.0 (5 mL) containing NaN3 (0.98 mg). DTNB solution 3 mM: DTNB (23.8 mg) was dissolved in freshly prepared buffer pH 8.0 (20 mL) containing NaCl (116.8 mg) and MgCl2 (38.0 mg). ATChI solution 15 mM:
(§5) ATChI (43.4 mg) was dissolved in bidestilled water (10 mL). All solutions were stored in Eppendorf caps in the refrigerator or in the freezer, if necessary. The pure compounds were […]
(§6) dissolved in bidistilled water. The final concentrations for the enzymatic assay were obtained by diluting the stock solution with bidistilled water.
(§7) A mixture of the DTNB solution (125 µL), enzyme solution (25 µL) and compounds solutions (25 µL, 3 different concentrations and once blank water) was prepared and incubated at 30 °C for 20 min. The substrate (25 µL, 4 different concentrations) was added to start the enzymatic reaction. The absorbance data (l = 415 nm) was recorded under a controlled temperature of 30 °C for 30 min at 1 min intervals. The substrate concentrations in the test were as follows: […]
(§8) determined as the quotient of the slopes (compound divided by blank) of the linear ranges.
(§9) The used substrate concentration was 0.625 mM. The absorbance data was recorded under a controlled temperature of 30 °C for 10 min.

[2] = biological target: T1, butyrylcholinesterase (BChE, equine serum) (Equus caballus, UniProt P81908); assay: Ellman's assay, butyrylcholinesterase inhibition; format: biochemical; conditions: for Grade of inhibition in% BChE: mean ± SE
T1 construct: Butyrylcholinesterase (from equine serum) was purchased from Fluka; purchased Fluka; host or cells: equine serum
T1 sequence (P81908 whole entry): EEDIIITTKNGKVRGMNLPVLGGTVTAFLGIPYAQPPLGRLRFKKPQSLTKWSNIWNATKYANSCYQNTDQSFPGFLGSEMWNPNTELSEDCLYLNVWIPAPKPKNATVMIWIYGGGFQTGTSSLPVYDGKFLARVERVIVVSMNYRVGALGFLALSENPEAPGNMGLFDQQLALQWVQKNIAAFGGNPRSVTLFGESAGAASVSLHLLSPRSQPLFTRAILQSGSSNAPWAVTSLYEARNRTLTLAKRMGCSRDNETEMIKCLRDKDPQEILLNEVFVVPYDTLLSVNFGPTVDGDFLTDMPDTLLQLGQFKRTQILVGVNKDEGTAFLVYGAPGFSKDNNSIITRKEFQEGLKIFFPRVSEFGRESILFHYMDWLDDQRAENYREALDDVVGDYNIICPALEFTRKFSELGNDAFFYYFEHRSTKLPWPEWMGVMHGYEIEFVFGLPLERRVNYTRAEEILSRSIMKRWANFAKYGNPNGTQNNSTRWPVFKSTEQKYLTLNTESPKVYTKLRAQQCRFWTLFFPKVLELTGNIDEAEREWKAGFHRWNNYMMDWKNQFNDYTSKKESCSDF
Excerpt: as §1, §2, §3, §4, §5, §6, §7, §8, §9

[3] = BChE, equine serum, Ellman's assay
[4] = BChE, equine serum, Ellman's assay, read-out: Ki (competitive inhibition)
[5] = read-out: Grade of inhibition in% BChE

Structure (SMILES)	Grade of inhibition in% AChE ([1]; c = 30 µM) [%]	Grade of inhibition in% BChE ([2]; c = 30 µM) [%]	Grade of inhibition in% AChE ([1]; c = 10 µM)	Type of Inhibition ([2]; BChE, equine serum)	Ki′ (uncompetitive inhibition) [2, 3] [µM]	Ki [2, 4] [µM]	Grade of inhibition in% BChE ([2]; c = 10 µM) [%]	other results
CC1(C)CCC2(C(=O)NCCN)CCC3(C)C(=CCC4C5(C)CC(O)C(O)C(C)(C)C5CCC43C)C2C1 (stereo not drawn) [Compound 18, (2α,3β)-N-(2-Aminoethyl)-2,3-dihydroxy-olean-12-en-28-amide]	39.15 ± 0.16	68.83 ± 1.57						
CC1(C)CCC2(C(=O)NCCN3CCCC3)CCC3(C)C(=CCC4C5(C)CCC(O)C(C)(C)C5CCC43C)C2C1 (stereo not drawn) [Compound 37, (3β)-N-(2-Pyrrolidin-1-ylethyl)-3-hydroxy-olean-12-en-28-amide]			10.04 ± 1.70%	mixed-type	> 50	0.55 ± 0.02	74.50 ± 0.93	
CC(=O)[C@@H]1CC[C@]2(C(=O)NCCN3CCCCC3)CC[C@]3(C)[C@H](CC[C@@H]4[C@@]5(C)CC[C@H](O)C(C)(C)[C@@H]5CC[C@]43C)[C@@H]12 [Compound 50, (3β)-N-(2-Piperidin-1-ylethyl)-3-hydroxy-20-oxo-30-norlupan-28-amide]			52.14 ± 1.55%	mixed-type	3.09 ± 0.03	0.97 ± 0.04	88.37 ± 0.85	
CC(=O)[C@@H]1CC[C@]2(C(=O)NCCN(C)C)CC[C@]3(C)[C@H](CC[C@@H]4[C@@]5(C)CC[C@H](O)C(C)(C)[C@@H]5CC[C@]43C)[C@@H]12 [Compound 30]	28.83 ± 0.80	89.76 ± 0.48		mixed-type	4.46 ± 0.01	1.12 ± 0.01		Type of Inhibition [1]: mixed-type; Ki' (uncompetitive inhibition) [1]: 74.05 ± 4.81 µM; Ki [1]: 15.5 ± 3.91 µM
C=C(C)C1CC[C@]2(C(=O)NCCN)CC[C@]3(C)C(CCC4[C@@]5(C)CC[C@H](O)C(C)(C)C5CC[C@]43C)C12 (stereo partly shown) [Compound 19]			62.95 ± 0.61%				36.70 ± 5.34	
C[C@@H]1CC[C@]2(C(=O)NCCN(C)C)CC[C@]3(C)C(=CCC4[C@@]5(C)CC[C@H](O)C(C)(C)C5CC[C@]43C)C2[C@H]1C (stereo partly shown) [Compound 26]	33.53 ± 0.44	77.74 ± 0.59		mixed-type	3.10 ± 0.30	1.11 ± 0.09		
COc1ccc2c3c1O[C@H]1C[C@@H](O)C=C[C@@]31CCN(C)C2 [GH, Galantamine hydrobromide, reference compound]				competitive				inhibition at 10 µM [2, 5]: 57.79 ± 0.52%; inhibition at 30 µM [2, 5]: 80.25 ± 0.33%
C[C@@H]1CC[C@]2(C(=O)NCCN3CCCC3)CC[C@]3(C)C(=CCC4[C@@]5(C)CC[C@H](O)C(C)(C)C5CC[C@]43C)C2[C@H]1C (stereo partly shown) [Compound 36]	31.45 ± 0.60	85.66 ± 0.10		mixed-type	2.23 ± 0.12	0.47 ± 0.08		
CC(=O)OC1CCC2(C)C(CCC3(C)C2CC=C2C4CC(C)(C)CCC4(C(=O)NCCN)CCC23C)C1(C)C (stereo not drawn) [Compound 12, (3β)-N-(2-Aminoethyl)-3-acetyloxy-olean-12-en-28-amide]	31.69 ± 0.04	57.54 ± 0.93						
C=C(C)C1CC[C@]2(C(=O)NCCN(C)C)CC[C@]3(C)C(CCC4[C@@]5(C)CC[C@H](OC(C)=O)C(C)(C)C5CC[C@]43C)C12 (stereo partly shown) [Compound 24]			13.10 ± 1.32%	mixed-type			67.75 ± 0.69	
CN(C)CCNC(=O)C12CCC(C)(C)CC1C1=CCC3C4(C)CCC(O)C(C)(C)C4CCC3(C)C1(C)CC2 (stereo not drawn) [Compound 27, (3β)-N-[2-(Dimethylamino)-ethyl]-3-hydroxy-olean-12-en-28-amide]			5.54 ± 0.07%	mixed-type	9.07 ± 0.02	1.31 ± 0.01	67.10 ± 0.07	selectivity F (percent inhibition for AChE divided by percent inhibition for BChE) ([2]; towards BChE): 0.08
CC1(C)CC[C@]2(C(=O)NCCN)CC[C@]3(C)C(=CC[C@@H]4[C@@]5(C)CC[C@H](O)C(C)(C)[C@@H]5CC[C@]43C)[C@@H]2C1 [Compound 17, (3β)-N-(2-Aminoethyl)-3-hydroxy-olean-12-en-28-amide]			88.61 ± 0.22%	mixed-type	7.68 ± 0.61	1.93 ± 0.13	49.10 ± 0.47	Type of Inhibition [1]: mixed-type; Ki' (uncompetitive inhibition) [1]: 18.24 ± 0.06 µM; Ki [1]: 8.53 ± 0.34 µM
CC1(C)CCC2(C(=O)NCCN3CCCCC3)CCC3(C)C(=CCC4C5(C)CC(O)C(O)C(C)(C)C5CCC43C)C2C1 (stereo not drawn) [Compound 48, (2α,3β)-N-(2-Piperidin-1-ylethyl)-2,3-dihydroxy-olean-12-en-28-amide]			9.32 ± 0.29%	mixed-type	6.21 ± 0.47	2.26 ± 0.05	69.30 ± 1.12	
C=C(C)C1CC[C@]2(C(=O)NCCN3CCCC3)CC[C@]3(C)C(CCC4[C@@]5(C)CC[C@H](O)C(C)(C)C5CC[C@]43C)C12 (stereo partly shown) [Compound 39]	58.81 ± 0.80	60.48 ± 0.05		mixed-type	> 9	3.24 ± 0.58		
C=C(C)C1CC[C@]2(C(=O)NCCN3CCCCC3)CC[C@]3(C)C(CCC4[C@@]5(C)CC[C@H](OC(C)=O)C(C)(C)C5CC[C@]43C)C12 (stereo partly shown) [Compound 44]	22.78 ± 0.85	33.83 ± 0.43						
CC1(C)CCC2(C(=O)NCCN3CCCC3)CCC3(C)C(=CCC4C5(C)CC(O)C(O)C(C)(C)C5CCC43C)C2C1 (stereo not drawn) [Compound 38, (2α,3β)-N-(2-Pyrrolidin-1-ylethyl)-2,3-dihydroxy-olean-12-en-28-amide]	23.33 ± 0.22	77.49 ± 0.10		mixed-type	14.15 ± 2.42	2.06 ± 0.03		
CC(=O)O[C@H]1CC[C@]2(C)[C@H]3CC[C@@H]4[C@H]5[C@H](C(C)=O)CC[C@]5(C(=O)NCCN5CCCCC5)CC[C@@]4(C)[C@]3(C)CC[C@H]2C1(C)C [Compound 45, (3β)-N-(2-Piperidin-1-ylethyl)-3-acetyloxy-20-oxo-30-norlupan-28-amide]			no inhibition	mixed-type	4.88 ± 0.21	0.71 ± 0.04	83.44 ± 1.00	
C[C@@H]1CC[C@]2(C(=O)NCCN)CC[C@]3(C)C(=CCC4[C@@]5(C)CC[C@H](O)C(C)(C)C5CC[C@]43C)C2[C@H]1C (stereo partly shown) [Compound 16]			28.54 ± 0.51%	mixed-type	12.15 ± 0.45	5.55 ± 0.12	64.10 ± 1.04	
C=C(C)C1CC[C@]2(C(=O)NCCN(C)C)CC[C@]3(C)C(CCC4[C@@]5(C)CC[C@H](O)C(C)(C)C5CC[C@]43C)C12 (stereo partly shown) [Compound 29]	22.12 ± 4.01	56.68 ± 0.01		mixed-type	16.11 ± 0.18	3.52 ± 0.07		
C=C(C)C1CC[C@]2(C(=O)NCCN3CCCC3)CC[C@]3(C)C(CCC4[C@@]5(C)CC[C@H](OC(C)=O)C(C)(C)C5CC[C@]43C)C12 (stereo partly shown) [Compound 34]			44.15 ± 0.32%	mixed-type	> 5	0.39 ± 0.04	71.56 ± 0.54	Ki ([2]; experimental Ki restated in docking Table 3, unit inferred, read-out: Ki): 0.39 µM
CC(=O)O[C@H]1CC[C@]2(C)[C@H]3CC[C@@H]4[C@H]5[C@H](C(C)=O)CC[C@]5(C(=O)NCCN)CC[C@@]4(C)[C@]3(C)CC[C@H]2C1(C)C [Compound 15]			44.71 ± 0.24%	mixed-type	17.14 ± 1.67	11.9 ± 1.17	29.55 ± 2.97	Type of Inhibition [1]: mixed-type; Ki' (uncompetitive inhibition) [1]: 6.83 ± 0.17 µM; Ki [1]: 3.06 ± 0.38 µM
